Experimental data from patent US10329296B2, “Indole derivatives” (Richter Gedeon Nyrt., priority 2015, dated 2019).
Where a name gives a salt, the structure may show the parent alone.

Target: human MCH1 receptor (Homo sapiens, UniProt Q99705)
Assay: MCHR1 antagonism functional assay, measuring cytoplasmic calcium concentration ([Ca2+]i);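 further: human MCH1 AequoScreen cells loaded with calcium-sensitive fluorescent dye, compounds preincubated one hour, then MCH given at its EC80, inhibition of ΔF/F rise relative to DMSO vehicle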
Protocol: Evaluation of MCHR1 Antagonism in Functional Assay
Cells: human MCH1 (SLC1) AequoScreen® Cell Line (Perkin Elmer ES-370-A, lot No: M4W-A2)
MCH was dissolved in MilliQ water (1 mM), aliquots were taken from the stock solution, and were kept at −20° C. One aliquot was used only once.
Assay buffer: HBSS+2 mM probenecid, pH=7.4
Measuring of Cytoplasmic Calcium Concentration ([Ca^2+]i):
On the day of measurement the culture medium was removed from the cells and a fluorescent Ca^2+-sensitive dye (FLIPR Calcium 5 kit, Molecular Devices R8186) was added to the cells at a 4× dilution compared to the recommended dilution by the manufacturer, in a volume of 100 μl/well, and cells were incubated at 37° C. for 10 min. […] The vehicle (DMSO, control treatment), or the buffer containing test compounds were added to the cells in a volume of 50 μl/well, and cells were incubated at 37° C. for further 60 min.
1 mM stock solution was made from the agonist in distilled water, this solution was distributed into aliquots, which were kept at −20° C. until use. One aliquot was used only once. Fluorescence was detected before addition of MCH for 20 s, and after addition of MCH for 40 s. MCH was applied at an EC80 concentration, the EC80-values were determined individually for every plate/experiment. For this whole MCH dose-response curves were determined on one part of the plate, 4 parameter sigmoidal curves were fitted to the experimental data by nonlinear regression, MCH EC80 values were derived from the fitted curve. The raw fluorescence data were converted into ΔF/F values (the maximum fluorescence value obtained after addition of MCH was normalized to the baseline fluorescence: ΔF/F=(Fmax−Fbaseline)/Fbaseline). […] IC50 values of the tested compounds were determined by fitting 4 parameter sigmoidal curves to inhibition % data. Data processing, including fitting curves by nonlinear regression, was done by SoftMaxPro software.

Row | SMILES | IC50
1 | CN1CCc2cc3cc(-n4ccc(OCc5ccccc5)cc4=O)ccc3n2CC1 [Example 10, 4-(benzyloxy)-1-{3-methyl-1H,2H,3H,4H,5H-[1,4]diazepino[1,7-a]indol-9-yl}-1,2-dihydropyridin-2-one hydrochloride salt] | 9.2 nM
2 | CC(C)N1CCc2c(Cl)c3cc(-n4ccc(OCc5ccccc5)cc4=O)ccc3n2CC1 [Example 27, 4-(benzyloxy)-1-[11-chloro-3-(propan-2-yl)-1H,2H,3H,4H,5H-[1,4]diazepino[1,7-a]indol-9-yl]-1,2-dihydropyridin-2-one hydrochloride salt] | 29.9 nM
3 | O=c1cc(OCc2ccc(Cl)cc2)ccn1-c1ccc2c(c1)cc1n2CCNCC1 [Example 6, 4-[(4-chlorophenyl)methoxy]-1-{1H,2H,3H,4H,5H-[1,4]diazepino[1,7-a]indol-9-yl}-1,2-dihydropyridin-2-one hydrochloride salt] | 11.9 nM
4 | CC(C)N1CCc2c(Cl)c3cc(-n4ccc(OCc5ccc(Cl)cn5)cc4=O)ccc3n2CC1 [Example 24, 1-[11-chloro-3-(propan-2-yl)-1H,2H,3H,4H,5H-[1,4]diazepino[1,7-a]indol-9-yl]-4-[(5-chloropyridin-2-yl)methoxy]-1,2-dihydropyridin-2-one maleic acid salt] | 18.5 nM
5 | O=c1cc(OCc2ccccc2)ccn1-c1ccc2c(c1)cc1n2CCN(C2CC2)CC1 [Example 29, 4-(benzyloxy)-1-{3-cyclopropyl-1H,2H,3H,4H,5H-[1,4]diazepino[1,7-a]indol-9-yl}-1,2-dihydropyridin-2-one maleic acid salt] | 12.9 nM
6 | COc1ccc(COc2ccn(-c3ccc4c(c3)cc3n4CCNCC3)c(=O)c2)cc1 [Example 2, 1-{1H,2H,3H,4H,5H-[1.4]diazepino[1,7-a]indol-9-yl}-4-[(4-methoxyphenyl)-methoxy]-1,2-dihydropyridin-2-one hydrochloride salt] | 32.9 nM
7 | Cc1c2n(c3ccc(-n4ccc(OCc5ccc(Cl)cn5)cc4=O)cc13)CCN(C(C)C)CC2 [Example 34, 4-[(5-chloropyridin-2-yl)methoxy]-1-[11-methyl-3-(propan-2-yl)-1H,2H,3H,4H,5H-[1,4]diazepino[1,7-a]indol-9-yl]-1,2-dihydropyridin-2-one maleic acid salt] | 14.3 nM
8 | CC(C)N1CCc2cc3cc(-n4ccc(OCc5ccc(F)cc5)cc4=O)ccc3n2CC1 [Example 21, 4-[(4-fluorophenyl)methoxy]-1-[3-(propan-2-yl)-1H,2H,3H,4H,5H-[1,4]diazepino[1,7-a]indol-9-yl]-1,2-dihydropyridin-2-one] | 8 nM
9 | CC(C)N1CCc2cc3cc(-n4ccc(OCc5ccccc5F)cc4=O)ccc3n2CC1 [Example 23, 4-[(2-fluorophenyl)methoxy]-1-[3-(propan-2-yl)-1H,2H,3H,4H,5H-[1,4]diazepino[1,7-a]indol-9-yl]-1,2-dihydropyridin-2-one hydrochloride salt] | 15.7 nM
10 | CC(C)N1CCc2c(I)c3cc(-n4ccc(OCc5ccc(Cl)cn5)cc4=O)ccc3n2CC1 [Example 26, 4-[(5-chloropyridin-2-yl)methoxy]-1-[11-iodo-3-(propan-2-yl)-1H,2H,3H,4H,5H-[1,4]diazepino[1,7-a]indol-9-yl]-1,2-dihydropyridin-2-one maleic acid salt] | 38.8 nM
11 | O=c1cc(OCc2ccc(F)cc2)ccn1-c1ccc2c(c1)cc1n2CCNCC1 [Example 5, 1-{1H,2H,3H,4H,5H-[1,4]diazepino[1,7-a]indol-9-yl}-4-[(4-fluorophenyl)methoxy]-1,2-dihydropyridin-2-one hydrochloride salt] | 12 nM
12 | CC(C)N1CCc2cc3cc(-n4ccc(OCc5ccccc5)cc4=O)ccc3n2CC1 [Example 19, 4-(benzyloxy)-1-[3-(propan-2-yl)-1H,2H,3H,4H,5H-[1,4]diazepino[1,7-a]indol-9-yl]-1,2-dihydropyridin-2-one hydrochloride salt] | 8.2 nM
13 | CC(C)N1CCc2cc3cc(-n4ccc(OCc5ccc(Cl)cc5)cc4=O)ccc3n2CC1 [Example 22, 4-[(4-chlorophenyl)methoxy]-1-[3-(propan-2-yl)-1H,2H,3H,4H,5H-[1,4]diazepino[1,7-a]indol-9-yl]-1,2-dihydropyridin-2-one maleic acid salt] | 7.2 nM
14 | O=c1cc(OCc2ccc(C(F)(F)F)cc2)ccn1-c1ccc2c(c1)cc1n2CCNCC1 [Example 8, 1-{1H,2H,3H,4H,5H-[1,4]diazepino[1,7-a]indol-9-il}-4-{[4-(trifluoromethyl)phenyl]methoxy}-1,2-dihydropyridin-2-one hydrochloride salt] | 123 nM
15 | O=c1cc(OCc2ccccc2F)ccn1-c1ccc2c(c1)cc1n2CCNCC1 [Example 7, 1-{1H,2H,3H,4H,5H-[1,4]diazepino[1,7-a]indol-9-yl}-4-[(2-fluorphenyl)methoxy]-1,2-dihydropyridin-2-one hydrochloride salt] | 27.7 nM
16 | O=c1cc(OCc2ccccc2)ccn1-c1ccc2c(c1)cc1n2CCNCC1 [Example 3, 4-(benzyloxy)-1-{1H,2H,3H,4H,5H-[1,4]diazepino[1,7-a]indol-9-yl}-1,2-dihydropyridin-2-one maleic acid salt] | 17.7 nM
17 | CC(C)N1CCc2c(Br)c3cc(-n4ccc(OCc5ccc(Cl)cn5)cc4=O)ccc3n2CC1 [Example 25, 1-[11-bromo-3-(propan-2-yl)-1H,2H,3H,4H,5H-[1,4]diazepino[1,7-a]indol-9-yl]-4-[(5-chloropyridin-2-yl)methoxy]-1,2-dihydropyridin-2-one maleic acid salt] | 30.7 nM

The remaining lines, values ahead:

Row | IC50 | SMILES
18 | 10 nM | O=c1cc(OCc2ccc(Cl)cn2)ccn1-c1ccc2c(c1)cc1n2CCN(CCF)CC1
19 | 6.5 nM | CCN1CCc2cc3cc(-n4ccc(OCc5ccc(Cl)cn5)cc4=O)ccc3n2CC1 [Example 15, 4-[(5-chloropyridin-2-yl)methoxy]-1-{3-etil-1H,2H,3H,4H,5H-[1,4]diazepino[1,7-a]indol-9-yl}-1,2-dihydropyridin-2-one]
20 | 9.8 nM | O=c1cc(OCc2ccc(Cl)cn2)ccn1-c1ccc2c(c1)cc1n2CCNCC1 [Example 4, 4-[(5-chloropyridin-2-yl)methoxy]-1-{1H,2H,3H,4H,5H-[1,4]diazepino[1,7-a]indol-9-yl}-1,2-dihydropyridin-2-one dihydrochloride salt]
21 | 15.5 nM | O=c1cc(OCc2ccc(Cl)cn2)ccn1-c1ccc2c(c1)c(Cl)c1n2CCN(CCF)CC1
22 | 7.9 nM | CCN1CCc2cc3cc(-n4ccc(OCc5ccc(OC)cc5)cc4=O)ccc3n2CC1 [Example 14, 1-{3-ethyl-1H,2H,3H,4H,5H-[1,4]diazepino[1,7-a]indol-9-yl}-4-[(4-methoxyphenyl)methoxy]-1,2-dihydropyridin-2-one]
23 | 9 nM | CN1CCc2cc3cc(-n4ccc(OCc5ccc(Cl)cc5)cc4=O)ccc3n2CC1 [Example 12, 4-[(4-chlorophenol)methoxy]-1-{3-methyl-1H,2H,3H,4H,5H-[1,4]diazepino[1,7-a]indol-9-yl}-1,2-dihydropyridin-2-one maleic acid salt]
24 | 12.3 nM | O=c1cc(OCc2ccc(Cl)cn2)ccn1-c1ccc2c(c1)cc1n2CCN(C2CCC2)CC1 [Example 31, 4-[(5-chloropyridin-2-yl)methoxy]-1-(3-cyclobutyl-1H,2H,3H,4H,5H-[1,4]diazepino[1,7-a]indol-9-yl)-1,2-dihydropyridin-2-one maleic acid salt]
25 | 9.6 nM | CN1CCc2cc3cc(-n4ccc(OCc5ccc(Cl)cn5)cc4=O)ccc3n2CC1 [Example 11, 4-[(5-chloropyridin-2-yl)methoxy]-1-{3-methyl-1H,2H,3H,4H,5H-[1,4]diazepino[1,7-a]indol-9-yl}-1,2-dihydropyridin-2-one]
26 | 18.9 nM | CC(=O)N1CCc2cc3cc(-n4ccc(OCc5ccc(Cl)cn5)cc4=O)ccc3n2CC1 [Example 17, 1-{3-acetyl-1H,2H,3H,4H,5H-[1,4]diazepino[1,7-a]indol-9-yl}-4-[(5-chloropyridin-2-yl)methoxy]-1,2-dihydropyridin-2-one]
27 | 14.9 nM | CN1CCc2cc3cc(-n4ccc(OCc5ccc(F)cn5)cc4=O)ccc3n2CC1 [Example 9, 4-[(5-fluoropyridin-2-yl)methoxy]-1-{3-methyl-1H,2H,3H,4H,5H-[1,4]diazepino[1,7-a]indol-9-yl}-1,2-dihydropyridin-2-one maleic acid salt]
28 | 17.6 nM | O=c1cc(OCc2ccc(F)cn2)ccn1-c1ccc2c(c1)cc1n2CCNCC1 [Example 1, 1-{1H,2H,3H,4H,5H-[1,4]diazepino[1,7-a]indol-9-yl}-4-[(5-fluoropyridin-2-yl)methoxy]-1,2-dihydropyridin-2-one hydrochloride salt]
29 | 15.2 nM | CC(C)N1CCc2cc3cc(-n4ccc(OCc5ccc(F)cn5)cc4=O)ccc3n2CC1 [Example 18, 4-[(5-fluoropyridin-2-yl)methoxy]-1-[3-(propan-2-yl)-1H,2H,3H,4H,5H-[1,4]diazepino[1,7-a]indol-9-yl]-1,2-dihydropyridin-2-one maleic acid salt]
30 | 6.2 nM | O=c1cc(OCc2ccc(Cl)cn2)ccn1-c1ccc2c(c1)cc1n2CCN(CC2CC2)CC1 [Example 28, 4-[(5-chloropyridin-2-yl)methoxy]-1-[3-(cyclopropylmethyl)-1H,2H,3H,4H,5H-[1,4]diazepino[1,7-a]indol-9-yl]-1,2-dihydropyridin-2-ond maleic acid salt]
31 | 17.2 nM | O=c1cc(OCc2ccc(Cl)cn2)ccn1-c1ccc2c(c1)cc1n2CCN(C2CC2)CC1 [Example 30, 4-[(5-chloropyridin-2-yl)methoxy]-1-{3-cyclopropyl-1H,2H,3H,4H,5H-[1,4]diazepino[1,7-a]indol-9-yl}-1,2-dihydropyridin-2-one maleic acid salt]
32 | 6.2 nM | CC(C)N1CCc2cc3cc(-n4ccc(OCc5ccc(Cl)cn5)cc4=O)ccc3n2CC1 [Example 20, 4-[(5-chloropyridin-2-yl)methoxy]-1-[3-(propan-2-yl)-1H,2H,3H,4H,5H-[1,4]diazepino[1,7-a]indol-9-yl]-1,2-dihydropyridin-2-one maleic acid salt]
33 | 7.2 nM | CCN1CCc2cc3cc(-n4ccc(OCc5ccc(F)cc5)cc4=O)ccc3n2CC1 [Example 16, 1-{3-ethyl-1H,2H,3H,4H,5H-[1,4]diazepino[1,7-a]indol-9-yl}-4-[(4-fluorophenyl)methoxy]-1,2-dihydropyridin-2-one]
